Results taken from patent US12186317B2, “Inhibitors of alpha-amino-beta-carboxymuconic acid semialdehyde decarboxylase” (TES Pharma S.r.l., priority 2018, dated 2025).

target: T1, hACMSD (ACMSD1) (Homo sapiens, UniProt Q8TDX5); test: Determination of ACMSD1 inhibition, spectrophotometrical in vitro assay (conversion of 3OH-anthranilic acid into ACMS); type: biochemical; conditions: HAA concentration of 10 μM; recombinant ACMSD1 from Pichia pastoris; 25° C.; absorbance at 360 nm
T1 construct: made in house; host or cells: Pichia pastoris
Protocol: The activity of compounds as inhibitors of ACMSD1 is determined in a spectrophotometrical in vitro assay. The pre-assay mixture is incubated and a compound of Formula (I) or (II), or a pharmaceutically acceptable salt thereof, and ACMSD1 solution is then added. The effect of ACMS concentration on the enzyme activity is investigated by varying 3-hydroxyanthranilic acid (30H-HA) concentration in the pre-assay mixture. Kinetic parameters are calculated from the initial velocity data using a Lineweaver-Burk plot.
The pre-assay mixture consisting of 3-hydroxyanthranilic acid (30H-HA), 3-hydroxyanthranilic acid, 3,4-diOxygenase (HAO), and a dialyzed crude extract of E. coli BL21 (DE3) cells expressing the recombinant enzyme, was incubated at 25° C. with monitoring of the increase in absorbance at 360 nm due to the formation of ACMS from 30H-HA. After the reaction was completed within ˜2 mins, an aliquot of ACMSD1 solution (prepared and purified from Pichia pastoris overexpressing the recombinant enzyme) was added, and the decrease in absorbance at 360 nm was followed at 15 second intervals. The effect of ACMS concentration on the enzyme activity was investigated by varying 30H-HA concentration from 2 to 20 μM. Kinetic parameters were calculated from the initial velocity data by using the Lineweaver-Burk plot.
The rate of the decrease in absorbance caused by ACMSD1 was calculated by subtracting that of the control reaction mixture without ACMSD from that described above. One unit of ACMSD activity was indicated as the amount of enzyme that converts 1 mmol of ACMS per minute at 25° C.
The enzymatic activity was determined at a HAA concentration of 10 μM in the presence of the compounds in Table 1 below. […] In Table 1, A is <0.1 μM; B is 0.1 to 1 μM; C is 1 to 10 μM; and D is >10 μM.

T1 sequence (Q8TDX5 whole entry): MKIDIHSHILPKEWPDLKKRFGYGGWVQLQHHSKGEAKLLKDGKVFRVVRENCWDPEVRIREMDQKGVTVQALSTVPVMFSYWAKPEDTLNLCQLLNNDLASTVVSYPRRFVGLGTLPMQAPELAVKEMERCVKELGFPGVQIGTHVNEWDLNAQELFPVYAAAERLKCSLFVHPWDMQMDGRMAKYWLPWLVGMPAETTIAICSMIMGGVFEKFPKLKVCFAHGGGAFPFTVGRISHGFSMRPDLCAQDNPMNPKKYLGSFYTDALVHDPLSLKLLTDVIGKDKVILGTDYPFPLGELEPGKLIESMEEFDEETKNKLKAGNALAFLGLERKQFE

CCOC(=O)Cc1cccc(CSc2nc(-c3cccs3)c(C#N)c(=O)[nH]2)c1 [I-1, [3-(5-Cyano-6-oxo-4-thiophen-2-yl-1,6-dihydro-pyrimidin-2-ylsulfanylmethyl)-phenyl]-acetic acid ethyl ester] and N#Cc1c(-c2cccs2)nc(SCc2cccc(CCO)c2)[nH]c1=O [I-12, 2-[3-(2-Hydroxy-ethyl)-benzylsulfanyl]-6-oxo-4-thiophen-2-yl-1,6-dihydropyrimidine-5-carbonitrile] fall in the same range of IC50: 1000 to 10000 nM for the first, 1000 to 10000 nM for the second.

N#Cc1c(-c2cccs2)nc(SCc2cccc(C(N)=O)c2)[nH]c1=O [I-2, 3-(5-Cyano-6-oxo-4-thiophen-2-yl-1,6-dihydro-pyrimidin-2-ylsulfanylmethyl)-benzamide] and N#Cc1c(-c2cccs2)nc(SCc2cccc(S(N)(=O)=O)c2)[nH]c1=O [I-18, 3-(5-Cyano-6-oxo-4-thiophen-2-yl-1,6-dihydro-pyrimidin-2-ylsulfanylmethyl)-benzenesulfonamide] fall in the same range of IC50: 100 to 1000 nM for the first, 100 to 1000 nM for the second.

First: N#Cc1c(-c2cccs2)nc(SCc2cccc(-c3cc(F)c(O)c(F)c3)c2)[nH]c1=O [I-3, 2-({[3-(3,5-difluoro-4-hydroxyphenyl)phenyl]methyl}sulfanyl)-6-oxo-4-(thiophen-2-yl)-1,6-dihydropyrimidine-5-carbonitrile]
Second: N#Cc1c(-c2cccs2)nc(SCc2cc(F)c(O)c(F)c2)[nH]c1=O [I-39, 2-(3,5-Difluoro-4-hydroxy-benzylsulfanyl)-6-oxo-4-thiophen-2-yl-1,6-dihydro-pyrimidine-5-carbonitrile]
The IC50 of the first is lower: under 100 nM for the first, 1000 to 10000 nM for the second.

Compared with COc1nc(SCc2cccc(CC(=O)O)c2)nc(-c2cccs2)c1C#N [I-4, [3-(5-Cyano-4-methoxy-6-thiophen-2-yl-pyrimidin-2-ylsulfanylmethyl)-phenyl]-acetic acid], N#Cc1c(Br)nc(SCc2cccc(CC(=O)O)c2)nc1-c1cccs1 [I-5, [3-(4-Bromo-5-cyano-6-thiophen-2-yl-pyrimidin-2-ylsulfanylmethyl)-phenyl]-acetic acid] is lower in IC50: 1000 to 10000 nM for the first, 100 to 1000 nM for the second.

First: N#Cc1c(NC2CC2)nc(SCc2cccc(CC(=O)O)c2)nc1-c1cccs1 [I-6, [3-(5-Cyano-4-cyclopropylamino-6-thiophen-2-yl-pyrimidin-2-ylsulfanylmethyl)-phenyl]-acetic acid]
Second: CNc1nc(SCc2cccc(CC(=O)O)c2)nc(-c2cccs2)c1C#N [I-9, [3-(5-Cyano-4-methylamino-6-thiophen-2-yl-pyrimidin-2-ylsulfanylmethyl)-phenyl]-acetic acid]
The IC50 of the first is higher: 1000 to 10000 nM for the first, 100 to 1000 nM for the second. The second is the more potent here.

N#Cc1c(N)nc(SCc2cccc(CC(=O)O)c2)nc1-c1cccs1 [I-7, [3-(4-Amino-5-cyano-6-thiophen-2-yl-pyrimidin-2-ylsulfanylmethyl)-phenyl]-acetic acid] and N#Cc1cnc(SCc2cccc(CC(=O)O)c2)nc1-c1cccs1 [I-8, [3-(5-Cyano-6-thiophen-2-yl-pyrimidin-2-ylsulfanylmethyl)-phenyl]-acetic acid] fall in the same range of IC50: 100 to 1000 nM for the first, 100 to 1000 nM for the second.

CNc1nc(SCc2cccc(C(=O)O)c2)nc(-c2cccs2)c1C#N [I-10, 3-(5-Cyano-4-methylamino-6-thiophen-2-yl-pyrimidin-2-ylsulfanylmethyl)-benzoic acid] and N#Cc1c(-c2cccs2)nc(SCc2cccc(CC(=O)O)c2)nc1N1CCOCC1 [I-15, [3-(5-Cyano-4-morpholin-4-yl-6-thiophen-2-yl-pyrimidin-2-ylsulfanylmethyl)-phenyl]-acetic acid] fall in the same range of IC50: 1000 to 10000 nM for the first, 1000 to 10000 nM for the second.

N#Cc1cccc(CSc2nc(-c3cccs3)c(C#N)c(=O)[nH]2)c1 [I-11, 2-(3-Cyano-benzylsulfanyl)-6-oxo-4-thiophen-2-yl-1,6-dihydro-pyrimidine-5-carbonitrile] and N#CCc1cccc(CSc2nc(-c3cccs3)c(C#N)c(=O)[nH]2)c1 [I-13, 2-(3-Cyanomethyl-benzylsulfanyl)-6-oxo-4-thiophen-2-yl-1,6-dihydro-pyrimidine-5-carbonitrile] fall in the same range of IC50: 1000 to 10000 nM for the first, 1000 to 10000 nM for the second.

Compared with Cn1nnc(-c2cccc(CSc3nc(-c4cccs4)c(C#N)c(=O)[nH]3)c2)n1 [I-14, 2-[3-(2-Methyl-2H-tetrazol-5-yl)-benzylsulfanyl]-6-oxo-4-thiophen-2-yl-1,6-dihydro-pyrimidine-5-carbonitrile], N#Cc1c(-c2cccs2)nc(SCc2nnn[nH]2)[nH]c1=O [I-25, 6-Oxo-2-(1H-tetrazol-5-ylmethylsulfanyl)-4-thiophen-2-yl-1,6-dihydro-pyrimidine-5-carbonitrile] is lower in IC50: 1000 to 10000 nM for the first, under 100 nM for the second.

Compared with N#Cc1c(-c2cccs2)nc(SCc2cccc(CC(=O)O)c2)nc1N1CCNCC1 [I-16, [3-(5-Cyano-4-piperazin-1-yl-6-thiophen-2-yl-pyrimidin-2-ylsulfanylmethyl)-phenyl]-acetic acid], N#Cc1c(-c2cccs2)cc(=O)[nH]c1SCc1cccc(CC(=O)O)c1 [I-20, [3-(3-Cyano-6-oxo-4-thiophen-2-yl-1,6-dihydro-pyridin-2-ylsulfanylmethyl)-phenyl]-acetic acid] is lower in IC50: over 10000 nM for the first, under 100 nM for the second. The second is the more potent here.

Going from CCOC(=O)Cc1cccc(CSc2nc(=O)c(C#N)c(-c3cccs3)n2C)c1 [I-17, [3-(5-Cyano-1-methyl-4-oxo-6-thiophen-2-yl-1,4-dihydro-pyrimidin-2-ylsulfanylmethyl)-phenyl]-acetic acid ethyl ester] to N#Cc1c(SCc2cccc(CC(=O)O)c2)[nH]c(=O)c(C#N)c1-c1cccs1 [I-21, [3-(3,5-Dicyano-6-oxo-4-thiophen-2-yl-1,6-dihydro-pyridin-2-ylsulfanylmethyl)-phenyl]-acetic acid], the IC50 falls from over 10000 nM to under 100 nM.

First: N#Cc1c(-c2ccccc2)cc(=O)[nH]c1SCc1cccc(CC(=O)O)c1 [I-19, [3-(3-Cyano-6-oxo-4-phenyl-1,6-dihydro-pyridin-2-ylsulfanylmethyl)-phenyl]-acetic acid]
Second: N#Cc1c(Cc2ccccc2)cc(=O)[nH]c1SCc1cccc(CC(=O)O)c1 [I-23, [3-(4-Benzyl-3-cyano-6-oxo-1,6-dihydro-pyridin-2-ylsulfanylmethyl)-phenyl]-acetic acid]
The IC50 of the first is lower: under 100 nM for the first, 1000 to 10000 nM for the second.

N#Cc1c(SCc2cccc(-c3nnn[nH]3)c2)[nH]c(=O)c(C#N)c1-c1cccs1 [I-22, 2-Oxo-6-[3-(1H-tetrazol-5-yl)-benzylsulfanyl]-4-thiophen-2-yl-1,2-dihydro-pyridine-3,5-dicarbonitrile] and N#Cc1c(Cc2ccccc2)nc(SCc2cccc(-c3nnn[nH]3)c2)[nH]c1=O [I-34, 4-Benzyl-6-oxo-2-[3-(1H-tetrazol-5-yl)-benzylsulfanyl]-1,6-dihydro-pyrimidine-5 carbonitrile] cannot be ordered by IC50: under 100 nM for the first, under 100 nM for the second.

N#Cc1c(-c2cccs2)nc(SCC(=O)O)[nH]c1=O [I-24, (5-Cyano-6-oxo-4-thiophen-2-yl-1,6-dihydro-pyrimidin-2-ylsulfanyl)-acetic acid] and N#Cc1c(-c2cccs2)nc(SCCC(=O)O)[nH]c1=O [I-37] fall in the same range of IC50: 1000 to 10000 nM for the first, 1000 to 10000 nM for the second.

First: O=c1cc(C(F)(F)F)nc(SCc2nnn[nH]2)[nH]1 [I-26, 2-(1H-Tetrazol-5-ylmethylsulfanyl)-6-trifluoromethyl-3H-pyrimidin-4-one]
Second: O=C(O)CSc1nc(C(F)(F)F)cc(=O)[nH]1 [I-27, (6-Oxo-4-trifluoromethyl-1,6-dihydro-pyrimidin-2-ylsulfanyl)-acetic acid]
The IC50 of the first is lower: under 100 nM for the first, 100 to 1000 nM for the second.

First: O=C(O)Cc1cccc(CSc2nc(C(F)(F)F)cc(=O)[nH]2)c1 [I-28, [3-(6-Oxo-4-trifluoromethyl-1,6-dihydro-pyrimidin-2-ylsulfanylmethyl)-phenyl]-acetic acid]
Second: O=C(O)c1cccc(CSc2nc(C(F)(F)F)cc(=O)[nH]2)c1 [I-31, 3-(6-Oxo-4-trifluoromethyl-1,6-dihydro-pyrimidin-2-ylsulfanylmethyl)-benzoic acid]
The IC50 of the first is lower: 100 to 1000 nM for the first, 1000 to 10000 nM for the second. The first is the more potent here.

N#Cc1c(Cc2ccccc2)nc(SCC(=O)O)[nH]c1=O [I-30, (4-Benzyl-5-cyano-6-oxo-1,6-dihydro-pyrimidin-2-ylsulfanyl)-acetic acid] and N#Cc1c(Cc2ccccc2)nc(SCc2cccc(C(=O)O)c2)[nH]c1=O [I-35, 3-(4-Benzyl-5-cyano-6-oxo-1,6-dihydro-pyrimidin-2-ylsulfanylmethyl)-benzoic acid] fall in the same range of IC50: 100 to 1000 nM for the first, 100 to 1000 nM for the second.

Compared with N#Cc1c(Cc2ccccc2)nc(SCc2nnn[nH]2)[nH]c1=O [I-32], N#Cc1c(Cc2ccccc2)nc(SCc2cc(F)c(O)c(F)c2)[nH]c1=O [I-41, 4-Benzyl-2-(3,5-difluoro-4-hydroxy-benzylsulfanyl)-6-oxo-1,6-dihydro-pyrimidine-5-carbonitrile] is higher in IC50: under 100 nM for the first, 1000 to 10000 nM for the second. The first is the more potent here.

First: N#Cc1c(Cc2ccccc2)nc(SCc2cccc(CC(=O)O)c2)[nH]c1=O [I-33, [3-(4-Benzyl-5-cyano-6-oxo-1,6-dihydro-pyrimidin-2-ylsulfanylmethyl)-phenyl]-acetic acid]
Second: N#Cc1c(C(F)(F)F)cc(=O)[nH]c1SCc1cccc(CC(=O)O)c1 [I-36, [3-(3-cyano-6-oxo-4-trifluoromethyl-1,6-dihydro-pyridin-2-ylsulfanylmethyl)-phenyl]-acetic acid]
The IC50 of the first is lower: under 100 nM for the first, 100 to 1000 nM for the second. The first is the more potent here.
